Experimental findings from PubChem BioAssay (NCI) are described below.

Some test systems named below: A549 NSCLC; EKVX NSCLC; NCI-H460 lung; PC-3 prostate; SF-268 CNS; SF-295 CNS; SK-OV-3 ovarian; UACC-62 melanoma; LXFL 529 NSCLC; DMS 114 small cell lung.
What all share (test): NCI-60 cell line screen, 48 h

Several values for one entry are separate records, joined by “and”; a condition that tells them apart may be missing. Equal entries are not always repeated.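 Briefly, cells in 96-well plates were exposed to five compound concentrations for 48 h, and endpoints were estimated by linear interpolation. GI50 is the concentration that inhibits growth by half. TGI: total growth inhibition.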

With `COc1ccc(C2=C(c3ccc(OC)cc3)C(=O)OC2)cc1`, the GI50 in the test with A549 NSCLC is 2.57 µM; in the test on EKVX NSCLC it was 16.1 µM; in the test on NCI-H460 lung it was 0.893 µM; in the test with PC-3 prostate, 5.19 µM; in the test on SF-268 CNS, 1.52 µM; with SF-295 CNS, 0.549 µM. In addition, the GI50 with SK-OV-3 ovarian was 2.2 µM; in the test with UACC-62 melanoma, 1.3 µM. For the same compound, the TGI in the test on A549 NSCLC is more than 100 µM; with EKVX NSCLC, more than 100 µM; in the test with NCI-H460 lung it was 17.7 µM; in the test on PC-3 prostate, 44.1 µM; with SF-268 CNS it was 27.6 µM; in the test with SK-OV-3 ovarian, more than 100 µM. The compound further showed a TGI in the test on UACC-62 melanoma of 20.6 µM.
For `C[C@H]1C[C@@H](n2c(Nc3ccc(OC(F)(F)F)cc3)nc3cc(CCC(=O)O)ccc32)CC(C)(C)C1`, the GI50 in the test with A549 NSCLC was 11.1 µM; with EKVX NSCLC it was 10.5 µM; with NCI-H460 lung it was 9.74 µM; in the test with PC-3 prostate it was 11.9 µM; with SF-268 CNS, 12.1 µM; in the test on SF-295 CNS, 4.85 µM. The figures for the GI50 in the test on SK-OV-3 ovarian and in the test on UACC-62 melanoma were 20 µM and 4.91 µM, respectively. The TGI in the test on A549 NSCLC amounted to 30.2 µM; in the test on EKVX NSCLC, 32.2 µM; with NCI-H460 lung it was 24.7 µM; in the test with PC-3 prostate it was 27.9 µM; with SF-268 CNS, 27.7 µM; with SF-295 CNS, 19.1 µM. The TGI with SK-OV-3 ovarian stood at 35.4 µM; with UACC-62 melanoma it was 17.7 µM.
For the compound `COc1ccc(-c2cc(=O)c3c(O)c(O)c(OC)cc3o2)cc1O`, the TGI in the test on A549 NSCLC, with EKVX NSCLC, in the test with LXFL 529 NSCLC, in the test on NCI-H460 lung, with SF-268 CNS and in the test with SF-295 CNS was more than 100 µM in each case. Besides, the TGI in the test on SK-OV-3 ovarian and in the test on UACC-62 melanoma was more than 100 µM in each case.
In the case of `O=C1/C(=C/c2ccc(F)cc2)COc2ccc(O)c(O)c21`, the GI50 in the test on A549 NSCLC was 3.32 µM; with EKVX NSCLC, 3.29 µM; in the test with NCI-H460 lung, 3.33 µM; with PC-3 prostate, 1.16 µM; in the test on SF-268 CNS, 2.51 µM; in the test with SF-295 CNS, 8.09 µM. In addition, the values for the GI50 in the test with SK-OV-3 ovarian and in the test with UACC-62 melanoma were 4.45 µM and 2.1 µM, respectively. Further, the TGI was more than 100 µM in the test on A549 NSCLC; 18.4 µM in the test with EKVX NSCLC; more than 100 µM with NCI-H460 lung; more than 100 µM in the test on PC-3 prostate; 9.27 µM with SF-268 CNS; more than 100 µM with SF-295 CNS. The TGI was more than 100 µM in the test on SK-OV-3 ovarian and 6.98 µM with UACC-62 melanoma.
For the compound `Cc1nc2ccccc2c(=O)n1/N=C(\N=Nc1ccc(Cl)cc1)c1cccc(-c2ccco2)c1`, the TGI with A549 NSCLC was more than 100 µM; in the test with EKVX NSCLC it was more than 100 µM; in the test on LXFL 529 NSCLC, more than 100 µM; with NCI-H460 lung, more than 100 µM; in the test with SF-268 CNS, more than 100 µM; with SF-295 CNS, 94.6 µM. The TGI is more than 100 µM in the test on SK-OV-3 ovarian and 87 µM with UACC-62 melanoma.
With `CN1CCN(C2=C(Cl)C(=O)c3ccccc3C2=O)CC1`, the GI50 with A549 NSCLC is 3.42 µM; in the test on EKVX NSCLC it was 3.05 µM; in the test on NCI-H460 lung it was 2.95 µM; with PC-3 prostate, 3.45 µM; with SF-268 CNS, 2.82 µM; with SF-295 CNS it was 4.8 µM. For the same compound, the GI50 in the test on SK-OV-3 ovarian is 9.11 µM; in the test on UACC-62 melanoma, 1.65 µM. For the same compound, the TGI was determined as 11.2 µM in the test with A549 NSCLC; 11 µM in the test with EKVX NSCLC; 9.47 µM with NCI-H460 lung; 8.91 µM in the test with PC-3 prostate; 10.9 µM with SF-268 CNS; 15.9 µM with SF-295 CNS. The TGI in the test on SK-OV-3 ovarian was 22.4 µM; in the test with UACC-62 melanoma, 3.11 µM.
For the compound `NC(CSC(c1ccccc1)(c1ccccc1)c1ccccc1)C(=O)O` (configuration not stated), the GI50 with A549 NSCLC was 4.86 µM and 2.75 µM; in the test with EKVX NSCLC, 3.24 µM; in the test with NCI-H460 lung it was 2.07 µM; in the test with PC-3 prostate, 2.43 µM; in the test with SF-268 CNS, 4.35 µM and 1.71 µM; in the test on SF-295 CNS, 0.485 µM and 0.522 µM and 2.65 µM. In addition, the GI50 with SK-OV-3 ovarian was 0.425 µM; in the test with UACC-62 melanoma it was 2.01 µM and 3.98 µM. For the same compound, the TGI was 82.1 µM and > 100 µM with A549 NSCLC; 16 µM with EKVX NSCLC; 21 µM and 15.8 µM in the test on NCI-H460 lung; 12.1 µM and > 100 µM in the test with PC-3 prostate; 63.3 µM and 85.7 µM with SF-268 CNS; 14.8 µM and > 100 µM in the test on SK-OV-3 ovarian. In addition, the TGI with UACC-62 melanoma is 42.9 µM and > 100 µM.
As for `NCC(=O)Nc1ccc(Cl)cc1C(=O)c1ccc[nH]1`, the TGI in the test with A549 NSCLC, in the test on EKVX NSCLC, in the test on NCI-H460 lung, in the test on PC-3 prostate, with SF-268 CNS and in the test on SF-295 CNS was more than 100 µM throughout. Besides, the TGI with SK-OV-3 ovarian and in the test on UACC-62 melanoma was more than 100 µM throughout.
Take `CC(C)(C)c1cc(C2c3cc4c(cc3OC(O)(CO)C2C(=O)O)OCO4)cc(C(C)(C)C)c1O` (configuration not stated) (tested in a mixture with another compound): the TGI was determined as 48.1 µM in the test on A549 NSCLC; 23.8 µM in the test with DMS 114 small cell lung; 50.5 µM in the test with EKVX NSCLC; 33.3 µM in the test with NCI-H460 lung; 30.3 µM in the test with SF-295 CNS; 45.8 µM in the test with SK-OV-3 ovarian. This compound yielded a TGI with UACC-62 melanoma of 18.8 µM.
For `Cc1cccc(NC(=O)c2c(N)[n+]([O-])c3ccccc3[n+]2[O-])c1`, the TGI in the test on A549 NSCLC is 34.6 µM; in the test with EKVX NSCLC it was 31.3 µM; in the test with LXFL 529 NSCLC it was 22.9 µM; in the test on NCI-H460 lung it was 28.1 µM; in the test with SF-268 CNS it was 22.8 µM; in the test with SF-295 CNS, 23.3 µM. Besides, the TGI with SK-OV-3 ovarian amounted to 63 µM.
On to `CC(C)(C)OC(=O)NCCCCCCCCCn1c2c(c3ccccc3c1=O)C(=O)c1ccccc1-2`, for which the GI50 in the test with A549 NSCLC was more than 100 µM; with EKVX NSCLC, 49.2 µM; in the test on NCI-H460 lung, more than 100 µM; in the test on PC-3 prostate it was more than 100 µM; with SF-268 CNS it was 32.6 µM; in the test on SF-295 CNS, 24.8 µM. Moreover, the GI50 was 23.6 µM in the test on SK-OV-3 ovarian and 17.3 µM in the test with UACC-62 melanoma. In addition, the TGI with A549 NSCLC, in the test with EKVX NSCLC, in the test with NCI-H460 lung, with PC-3 prostate, with SF-268 CNS and in the test on SF-295 CNS was more than 100 µM each time. Besides, the TGI with SK-OV-3 ovarian amounted to 78.3 µM; in the test with UACC-62 melanoma, 40.7 µM.
